Measurements as given in patent US20240318102A1, “IMPROVED ENZYME-CONTAINING ADDITIVE AND DETERGENT LIQUOR FORMULATIONS” (priority 2021, published 2024).

Target: T1, lipase enzyme (Thermomyces lanuginosus, UniProt O59952, N255R/T253R)
T1 construct: purchased Novozymes LIPEX 100 L
Assay: Washing test: total hydrolysis of rapeseed oil on a polyester swatch by lipase-containing washing liquor, free oleic acid quantified by HPLC
Assay type: biochemical
Conditions: about 100 ppm by weight surfactant; lipase concentrate about 0.2 g/l; pH about 9.6; about 50° C.; water hardness 2 fH
Description: The total hydrolysis of rapeseed oil in a wash process was tested with washing liquors that were always comprising the same concentration of a lipase enzyme concentrate. A blank test was performed without any added surfactant. This blank test served as the reference with which could be compared the other results obtained with the same washing liquor samples into which one of a number of different non-ionic surfactants were added.
In the experiments, the lipase concentrate was always present in a concentration of about 0.2 gram of the concentrate per litre of total liquor.
The washing tests were performed at a temperature of about 50° C. The water in the formulations was demineralised water obtained by reverse osmosis (RO).
Different washing liquors were prepared containing about 100 ppm by weight of a selected surfactant, to be compared with a blank liquor containing only the lipase enzyme concentrate and no surfactants.
For each liquor was tested the appearance of free oleic acid generated from the hydrolysis of a standard amount of rapeseed oil with which the liquor was brought in contact. Monitored by High Performance Liquid Chromatography (HPLC) was the quantitative release of free oleic acid (C18:1 fatty acid) in the washing liquor and/or present on the textile, as explained as part of the protocols below. Because oleic acid is the main fatty acid in the triglycerides of rapeseed oil, the generation of this acid as free fatty acid it is an excellent quantitative marker for the hydrolysis of rapeseed oil, in this context thus also for the activity of the lipase enzyme.
A series of tests were performed using water having a hardness of 2 fH. […] For each surfactant choice 2 duplicate samples were tested, except for Sample J (3 duplicates) and Sample K (only 1 sample tested). […] Also shown for each bar with a surfactant is an error bar showing the difference between the lowest and the highest of the duplicates.
The washing tests consisted of contacting at 50° C. a washing liquor containing the selected surfactant together with 0.2 grams per litre of the lipase enzyme concentrate and having a pH of 9.6 with a polyester swatch type W30-A (PES W30-A textile swatch obtained from the company Center For Testmaterials BV (NL)) that has been pre-treated with an amount of rapeseed oil such that the textile swatch contained about 1.5 grams of rapeseed oil on a total weight of slightly over 8 grams of pre-treated swatch.
The pre-treatment consisting of distributing a generous amount of rapeseed oil over the swatch by means of a paint roller. After applying the rapeseed oil onto the swatch, the impregnated swatch was left to dry for 48 hours between two layers of textile for assuring saturation and for absorbing the excess, after which the swatch was weighed on an analytical balance. The difference with the weight of the swatch before applying the rapeseed oil provides the amount of rapeseed oil that was present on the swatch.
In a 600 ml beaker is introduced 500 grams of the stock solution that was prepared in step 2, and this is brought up to a temperature of […] under stirring by means of a mixer submerged close to the bottom of the beaker at about 200 rpm. To this stock solution is then added 100 microliter (“μl”) of the concentrate of the lipase enzyme. Into this warm solution is then introduced the textile (i.e. the pre-treated PES swatch) to be tested, and the time counting of 10 minutes is started. Where a surfactant should be included, 50 milligram thereof is added into the beaker prior to introducing the lipase enzyme and of the textile.
After the 10 minutes contacting time provided in part 1, about 30 grams of the wash water (or wash liquor) is introduced into the 250 ml beaker containing the buffer solution and the formic acid. The formic acid serves to inactivate the lipase enzyme, so that the reaction is stopped. The total weight of the beaker content is noted and should be ±35 grams.
The dried textile is first weighed. […]

T1 sequence (O59952 23-291 T253R/N255R): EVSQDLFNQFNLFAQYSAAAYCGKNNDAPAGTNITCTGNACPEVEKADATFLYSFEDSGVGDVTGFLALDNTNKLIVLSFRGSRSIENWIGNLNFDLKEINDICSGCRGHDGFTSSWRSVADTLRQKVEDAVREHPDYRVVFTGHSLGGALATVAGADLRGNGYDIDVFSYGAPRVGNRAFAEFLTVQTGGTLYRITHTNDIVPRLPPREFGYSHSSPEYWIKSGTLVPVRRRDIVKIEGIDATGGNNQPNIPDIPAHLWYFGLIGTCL

Row | Substance | effect of the surfactant on lipase activity in the washing liquor (in words, FIG. 1)
1 | C12-C14 amine oxide [P] | significant boost
2 | isotridecyl alcohol ethoxylated to an average degree of ethoxylation of about 3 | not better than the conventional LES surfactant
3 | 7EO-isoC13 [F] | not better than the conventional LES surfactant
4 | C9-C11 fatty alcohol alkoxylated with an average ethoxylation degree of about 6 and an average propoxylation degree of about 4 [Sample O] | worse than the LES reference
5 | 9EO-isoC13 [G] | not better than the conventional LES surfactant
6 | C8-C10 alkyl polyglucoside (APG) with an average degree of polymerisation (DP) of 1.5 | much lower depressing effect
7 | C8-C10 APG-DP of 1.7 [Sample K] | much lower depressing effect
8 | C8-C16 APG-DP of 1.5 [Sample J] | much lower depressing effect
9 | a mixture of linear C13-C15 alcohol that has been ethoxylated to an average degree of about 3 | relatively benign
10 | 10EO-isoC13 [H] | not better than the conventional LES surfactant
11 | 5EO-isoC13 | not better than the conventional LES surfactant
12 | 5EO-C13-C15 [M] | relatively benign
13 | 7EO-C13-15 [N] | much larger depressing effect

Same assay, conditions: about 100 ppm by weight surfactant; lipase concentrate about 0.2 g/l; pH about 9.6; about 50° C.; water hardness 2 fH; 10 minute washing test

Row | Substance | relative lipase activity relative to the blank liquor (A) set at 100% [%]
14 | Linear Alkyl Benzene Sulphonate [Sample B] | 12

Target: T1, lipase enzyme
Assay: as above
Assay type: biochemical
Conditions: Example 5, surfactant concentration series

Row | Substance | surfactant concentration at which the suppressing activity already becomes noticeable [ppm by weight] | surfactant concentration until which the suppressing effect further grows (about the same up to 250 ppm by weight)
15 | 5EO-isoC13 | 10 | about 100 ppm by weight
